According to the supplement of paper PMC10627819:

What was measured:
S. pneumoniae D39V [1] = test: fitness (endpoint OD595 vs no drug) (fraction); higher = more growth
Summary of the method: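 Plates with 384 wells were inoculated at OD595 0.01 using 30 µl of TSB, LB Lennox or CY, or 55 µl for S. pneumoniae. Incubation was at 37 °C, with OD595 measured every 30 min for 14 h. Fitness is the stationary-phase transition optical density over the robust mean of no-drug control wells, after first-reading background subtraction; it is capped at 1.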

B. subtilis 168 = test: Bliss interaction score (quartile over a dose matrix) (fitness difference); higher = more antagonism (negative = synergy)
Summary of the method: (§1)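 Fitness is OD595 at stationary-phase entry relative to the plate's robust no-drug mean, capped at 1. Single-drug fitness was inferred from combinations. The Bliss score is observed minus product-expected fitness, summarised by quartiles over technical, biological and donor/recipient replicates.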

S. aureus DSM 20231 = test: as above
Summary of the method: as §1

S. aureus Newman = test: as above
Summary of the method: as §1

S. pneumoniae D39V [2] = test: as above
Summary of the method: as §1
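For Bliss interaction score (quartile over a dose matrix) in this document: first quartile when negative (synergy) and third quartile when positive (antagonism).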

Row | Compound | Bliss interaction score (B. subtilis 168) | Bliss interaction score (S. aureus DSM 20231) | Bliss interaction score (S. aureus Newman) | Bliss interaction score (S. pneumoniae D39V [2]) | also measured
1 | O=C1CN(/N=C/c2ccc([N+](=O)[O-])o2)C(=O)N1 [Nitrofurantoin] + CO[C@H]1/C=C/O[C@@]2(C)Oc3c(C)c(O)c4c(O)c(c(/C=N/N5CCN(C)CC5)c(O)c4c3C2=O)NC(=O)/C(C)=C\C=C\[C@H](C)[C@H](O)[C@@H](C)[C@@H](O)[C@@H](C)[C@H](OC(C)=O)[C@@H]1C [Rifampicin] | -0.0448 | -0.0228 | -0.0316 | -0.117 | fitness (S. pneumoniae D39V [1]; first compound 1.285 µg/mL, partner 0.05 µg/mL): 0.825; fitness (S. pneumoniae D39V [1]; first compound 1.285 µg/mL, partner 0.1 µg/mL): 0.372; fitness (S. pneumoniae D39V [1]; first compound 1.285 µg/mL, partner 0.2 µg/mL): 0.129; fitness (S. pneumoniae D39V [1]; first compound 2 µg/mL, partner 0.025 µg/mL, one replicate): 0.873; fitness (S. pneumoniae D39V [1]; first compound 2 µg/mL, partner 0.05 µg/mL): 0.789; fitness (S. pneumoniae D39V [1]; first compound 2 µg/mL, partner 0.2 µg/mL, one replicate): 0; fitness (S. pneumoniae D39V [1]; first compound 2.57 µg/mL, partner 0.05 µg/mL): 0.798; fitness (S. pneumoniae D39V [1]; first compound 2.57 µg/mL, partner 0.1 µg/mL): 0.353; fitness (S. pneumoniae D39V [1]; first compound 2.57 µg/mL, partner 0.2 µg/mL): 0.166; fitness (S. pneumoniae D39V [1]; first compound 4 µg/mL, partner 0.025 µg/mL, one replicate): 0.85; fitness (S. pneumoniae D39V [1]; first compound 4 µg/mL, partner 0.05 µg/mL): 0.781; fitness (S. pneumoniae D39V [1]; first compound 4 µg/mL, partner 0.2 µg/mL, one replicate): 0; fitness (S. pneumoniae D39V [1]; first compound 5.14 µg/mL, partner 0.05 µg/mL, one replicate): 0.806; fitness (S. pneumoniae D39V [1]; first compound 5.14 µg/mL, partner 0.1 µg/mL, one replicate): 0.369; fitness (S. pneumoniae D39V [1]; first compound 5.14 µg/mL, partner 0.2 µg/mL, one replicate): 0.171; fitness (S. pneumoniae D39V [1]; first compound 8 µg/mL, partner 0.025 µg/mL, one replicate): 0.782; fitness (S. pneumoniae D39V [1]; first compound 8 µg/mL, partner 0.05 µg/mL): 0.668; fitness (S. pneumoniae D39V [1]; first compound 8 µg/mL, partner 0.1 µg/mL): 0.351; fitness (S. pneumoniae D39V [1]; first compound 8 µg/mL, partner 0.2 µg/mL, one replicate): 0
2 | COc1c(N2C[C@@H]3CCCN[C@@H]3C2)c(F)cc2c(=O)c(C(=O)O)cn(C3CC3)c12 [Moxifloxacin] + CC[C@H]1OC(=O)[C@H](C)C(=O)[C@H](C)[C@@H](O[C@@H]2O[C@H](C)C[C@H](N(C)C)[C@H]2O)[C@](C)(OC)C[C@@H](C)C(=O)[C@H](C)[C@H]2N(CCCCn3cnc(-c4cccnc4)c3)C(=O)O[C@]12C [Telithromycin] | 0.0281 | 0.0615 | 0.0472 | 0.0543 | 
3 | CC[C@H]1OC(=O)[C@H](C)[C@@H](O[C@H]2C[C@@](C)(OC)[C@@H](O)[C@H](C)O2)[C@H](C)[C@@H](O[C@@H]2O[C@H](C)C[C@H](N(C)C)[C@H]2O)[C@](C)(OC)C[C@@H](C)C(=O)[C@H](C)[C@@H](O)[C@]1(C)O [Clarithromycin] + CN[C@H](CC(C)C)C(=O)N[C@H]1C(=O)N[C@@H](CC(N)=O)C(=O)N[C@H]2C(=O)N[C@H]3C(=O)N[C@H](C(=O)N[C@H](C(=O)O)c4cc(O)cc(O)c4-c4cc3ccc4O)[C@H](O[C@H]3C[C@](C)(N)[C@@H](O)[C@H](C)O3)c3ccc(c(Cl)c3)Oc3cc2cc(c3O[C@@H]2O[C@H](CO)[C@@H](O)[C@H](O)[C@H]2O[C@H]2C[C@](C)(NCc3ccc(-c4ccc(Cl)cc4)cc3)[C@@H](O)[C@H](C)O2)Oc2ccc(cc2Cl)[C@H]1O [Oritavancin] | 0.0293 | -0.0389 | -0.0471 | 0.0635 | 
4 | CC(=O)O[C@H]1C[C@@]2(C)[C@@H](C[C@@H](O)[C@H]3[C@@]4(C)CC[C@@H](O)[C@@H](C)[C@@H]4CC[C@@]32C)/C1=C(\CCC=C(C)C)C(=O)O [Fusidic acid] + Cc1ncc([N+](=O)[O-])n1CCO [Metronidazole] | 0.0703 | -0.0408 | -0.0202 | 0.133 | 
5 | CC(=O)OC[C@H]1O[C@@H]([S-])[C@H](OC(C)=O)[C@@H](OC(C)=O)[C@@H]1OC(C)=O.CCP(CC)CC.[Au+] [Auranofin] + CO[C@@H]1[C@@H](OC(N)=O)[C@@H](O)[C@H](Oc2ccc3c(O)c(NC(=O)c4ccc(O)c(CC=C(C)C)c4)c(=O)oc3c2C)OC1(C)C [Novobiocin] | -0.0665 | -0.0224 | 0.105 | 0.0612 | 
6 | CC(=O)OC[C@H]1O[C@@H]([S-])[C@H](OC(C)=O)[C@@H](OC(C)=O)[C@@H]1OC(C)=O.CCP(CC)CC.[Au+] [Auranofin] + CCC(C)C1C(=O)NC(=C)C(=O)NC(C(=O)NC(CSCC(C(=O)N1)NC(=O)/C(=C/C)/NC(=O)C(C(C)CC)N)C(=O)NC2C(SCC(NC(=O)CNC(=O)C3CCCN3C2=O)C(=O)NC(CCCCN)C(=O)NC4C(SCC(NC(=O)CNC(=O)C(NC(=O)C(NC(=O)C(NC(=O)CNC4=O)C)CC(C)C)CCSC)C(=O)NC(CC(=O)N)C(=O)NC(CCSC)C(=O)NC(CCCCN)C(=O)NC5C(SCC6C(=O)NC(C(=O)NC(CSC(C(C(=O)N6)NC(=O)C(NC5=O)C)C)C(=O)NC(CO)C(=O)NC(C(C)CC)C(=O)NC(CC7=CN=CN7)C(=O)NC(C(C)C)C(=O)NC(=C)C(=O)NC(CCCCN)C(=O)O)CC8=CN=CN8)C)C)C)CC(C)C [Nisin] |  |  |  |  | Bliss interaction score (B. subtilis 168; main component drawn): -0.0321; Bliss interaction score (S. aureus DSM 20231; main component drawn): -0.0361; Bliss interaction score (S. aureus Newman; main component drawn): 0.0274; Bliss interaction score (S. pneumoniae D39V [2]; main component drawn): -0.0798
7 | CC(=O)OC[C@H]1O[C@@H]([S-])[C@H](OC(C)=O)[C@@H](OC(C)=O)[C@@H]1OC(C)=O.CCP(CC)CC.[Au+] [Auranofin] + CC[C@H]1OC(=O)[C@H](C)C(=O)[C@H](C)[C@@H](O[C@@H]2O[C@H](C)C[C@H](N(C)C)[C@H]2O)[C@](C)(OC)C[C@@H](C)C(=O)[C@H](C)[C@H]2N(CCCCn3cnc(-c4cccnc4)c3)C(=O)O[C@]12C [Telithromycin] | -0.0304 | 0.0187 | 0.0309 | 0.0324 | 
8 | CC(=O)O[C@H]1C[C@@]2(C)[C@@H](C[C@@H](O)[C@H]3[C@@]4(C)CC[C@@H](O)[C@@H](C)[C@@H]4CC[C@@]32C)/C1=C(\CCC=C(C)C)C(=O)O [Fusidic acid] + CC1(C)S[C@@H]2[C@H](NC(=O)Cc3ccccc3)C(=O)N2[C@H]1C(=O)O [PenicillinG] | 0.0421 | 0.0382 | -0.0384 | 0.0666 | 
9 | CCCCCCCCCC(=O)N[C@H]1[C@H](Oc2c3cc4cc2Oc2ccc(cc2Cl)[C@@H](O[C@@H]2O[C@H](CO)[C@@H](O)[C@H](O)[C@H]2NC(C)=O)[C@@H]2NC(=O)[C@H](NC(=O)[C@@H]4NC(=O)[C@H]4NC(=O)[C@@H](Cc5ccc(c(Cl)c5)O3)NC(=O)[C@H](N)c3ccc(O)c(c3)Oc3cc(O)cc4c3)c3ccc(O)c(c3)-c3c(O[C@H]4O[C@H](CO)[C@@H](O)[C@H](O)[C@@H]4O)cc(O)cc3[C@@H](C(=O)O)NC2=O)O[C@H](CO)[C@@H](O)[C@@H]1O [Teicoplanin] + CC[C@H]1OC(=O)[C@H](C)C(=O)[C@H](C)[C@@H](O[C@@H]2O[C@H](C)C[C@H](N(C)C)[C@H]2O)[C@](C)(OC)C[C@@H](C)C(=O)[C@H](C)[C@H]2N(CCCCn3cnc(-c4cccnc4)c3)C(=O)O[C@]12C [Telithromycin] |  |  |  |  | Bliss interaction score (B. subtilis 168; main component drawn): 0.0347; Bliss interaction score (S. aureus DSM 20231; main component drawn): 0.0617; Bliss interaction score (S. aureus Newman; main component drawn): 0.0616; Bliss interaction score (S. pneumoniae D39V [2]; main component drawn): 0.0575
10 | CC(=O)OC[C@H]1O[C@@H]([S-])[C@H](OC(C)=O)[C@@H](OC(C)=O)[C@@H]1OC(C)=O.CCP(CC)CC.[Au+] [Auranofin] + Cc1onc(-c2ccccc2)c1C(=O)N[C@@H]1C(=O)N2[C@@H]1SC(C)(C)[C@@H]2C(=O)O [Oxacillin] | -0.0319 | 0.0406 | -0.0535 | 0.125 | 
11 | CC[C@H]1OC(=O)[C@H](C)[C@@H](O[C@H]2C[C@@](C)(OC)[C@@H](O)[C@H](C)O2)[C@H](C)[C@@H](O[C@@H]2O[C@H](C)C[C@H](N(C)C)[C@H]2O)[C@](C)(OC)C[C@@H](C)C(=O)[C@H](C)[C@@H](O)[C@]1(C)O [Clarithromycin] + CCCCCCCCCC(=O)N[C@@H]1[C@H]([C@@H]([C@H](O[C@H]1OC2=C3C=C4C=C2OC5=C(C=C(C=C5)[C@H]([C@H]6C(=O)N[C@@H](C7=C(C(=CC(=C7)O)OC8[C@H]([C@H]([C@@H]([C@H](O8)CO)O)O)O)C9=C(C=CC(=C9)[C@H](C(=O)N6)NC(=O)[C@@H]4NC(=O)[C@@H]1C2=CC(=CC(=C2)OC2=C(C=CC(=C2)[C@H](C(=O)N[C@H](CC2=CC(=C(O3)C=C2)Cl)C(=O)N1)N)O)O)O)C(=O)O)O[C@H]1[C@@H]([C@H]([C@@H]([C@H](O1)CO)O)O)NC(=O)C)Cl)CO)O)O [Teicoplanin] |  |  |  |  | Bliss interaction score (B. subtilis 168; main component drawn): 0.0401; Bliss interaction score (S. aureus DSM 20231; main component drawn): 0.099; Bliss interaction score (S. aureus Newman; main component drawn): 0.173; Bliss interaction score (S. pneumoniae D39V [2]; main component drawn): -0.0509
12 | O=C(N[C@H](CO)[C@H](O)c1ccc([N+](=O)[O-])cc1)C(Cl)Cl [Chloramphenicol] + CN[C@H](CC(C)C)C(=O)N[C@H]1C(=O)N[C@@H](CC(N)=O)C(=O)N[C@H]2C(=O)N[C@H]3C(=O)N[C@H](C(=O)N[C@H](C(=O)O)c4cc(O)cc(O)c4-c4cc3ccc4O)[C@H](O[C@H]3C[C@](C)(N)[C@@H](O)[C@H](C)O3)c3ccc(c(Cl)c3)Oc3cc2cc(c3O[C@@H]2O[C@H](CO)[C@@H](O)[C@H](O)[C@H]2O[C@H]2C[C@](C)(NCc3ccc(-c4ccc(Cl)cc4)cc3)[C@@H](O)[C@H](C)O2)Oc2ccc(cc2Cl)[C@H]1O [Oritavancin] | 0.0647 | 0.0571 | -0.0346 | 0.0499 | 
13 | N[C@@H]1CONC1=O [CycloserineD] + Cc1onc(-c2ccccc2)c1C(=O)N[C@@H]1C(=O)N2[C@@H]1SC(C)(C)[C@@H]2C(=O)O [Oxacillin] | 0.0509 | 0.0729 | -0.0567 | -0.17 | 
14 | CC(=O)OC[C@H]1O[C@@H]([S-])[C@H](OC(C)=O)[C@@H](OC(C)=O)[C@@H]1OC(C)=O.CCP(CC)CC.[Au+] [Auranofin] + CC[C@H]1OC(=O)[C@H](C)[C@@H](O[C@H]2C[C@@](C)(OC)[C@@H](O)[C@H](C)O2)[C@H](C)[C@@H](O[C@@H]2O[C@H](C)C[C@H](N(C)C)[C@H]2O)[C@](C)(O)C[C@@H](C)CN(C)[C@H](C)[C@@H](O)[C@]1(C)O [Azithromycin] | 0.0589 | 0.0282 | 0.137 | -0.038 | 
15 | C[C@@H](O)[C@H]1C(=O)N2C(C(=O)O)=C(SCCNC=N)C[C@H]12 [Imipenem] + CO[C@@H]1[C@@H](OC(N)=O)[C@@H](O)[C@H](Oc2ccc3c(O)c(NC(=O)c4ccc(O)c(CC=C(C)C)c4)c(=O)oc3c2C)OC1(C)C [Novobiocin] | -0.166 | 0.0228 | -0.0163 | -0.107 | 
